The record followed here is ChEMBL document CHEMBL1201862, “PubChem BioAssay data set” (2004).

Some test systems named below: SK-MEL-5; A549; MOLT-4; SK-MEL-28; SNB-19; Malme-3M; NCI-H522; SK-MEL-2; KM12; NCI-H460; RPMI-8226; CCRF-CEM; CAKI-1; OVCAR-8; RXF 393; U-251; M14; HOP-62; COLO 205; OVCAR-3.
Common to all, as to assay: NCI anticancer screen, dose series, 48 h

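Results reflect a 48-hour exposure of cells in 96-well plates to compound at five concentrations. GI50: concentration for 50% inhibition of growth.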 Activity calls are given as the source filed them. Cut-off read from the data, not from the text of the source: active = GI50 up to about 1.1 µM and inactive = higher.

Turning to `[N-]=[N+]=CC(=O)CCC(N)C(=O)O` (configuration not stated), the GI50 in the test with SK-MEL-5 was 1.22 µM (inactive); in the test with A549, 1.01 µM (active); in the test with MOLT-4 it was 0.721 µM (active); in the test with SK-MEL-28, 2.8 µM (inactive); in the test on SNB-19, 8.71 µM (inactive); in the test with Malme-3M, 6.38 µM (inactive). Besides, the GI50 with NCI-H522 is 3.01 µM (inactive); in the test on SK-MEL-2, 53.7 µM (inactive); in the test with KM12, 0.541 µM (active); with NCI-H460, 1.38 µM (inactive); in the test on RPMI-8226, 3.54 µM (inactive); in the test with CCRF-CEM, 0.676 µM (active). Moreover, the GI50 is 3.8 µM (inactive) in the test with CAKI-1; 2.02 µM (inactive) with OVCAR-8; 8.18 µM (inactive) in the test with RXF 393; 1.55 µM (inactive) in the test on U-251; 1.33 µM (inactive) in the test with M14; 1.31 µM (inactive) in the test on HOP-62. Also, the GI50 with COLO 205 is 1.15 µM (inactive).
On to `CC1=CC(O)C(O)C2(C)C1CC1OC(=O)C(O)C3C(C)C(O)C4(O)OCC13C42` (configuration not stated), for which the GI50 was 29.4 µM (inactive) in the test with SK-MEL-5; 27.9 µM (inactive) in the test on A549; 12.2 µM (inactive) in the test on MOLT-4; 118 µM (inactive) in the test with SK-MEL-28; 10.2 µM (inactive) in the test on OVCAR-3; 13.7 µM (inactive) with SNB-19. Moreover, the GI50 in the test on Malme-3M was 97.7 µM (inactive); in the test on NCI-H522, 50.5 µM (inactive); in the test on SK-MEL-2, 59.2 µM (inactive); with KM12, 13.3 µM (inactive); in the test with NCI-H460, 7.82 µM (inactive); with RPMI-8226, 16.9 µM (inactive). Moreover, the GI50 in the test with CCRF-CEM was 7.05 µM (inactive); in the test on CAKI-1 it was 32.8 µM (inactive); with OVCAR-8, 32.1 µM (inactive); in the test on RXF 393, 8.81 µM (inactive); with U-251, 62.8 µM (inactive); with HOP-62 it was 65.3 µM (inactive). Besides, the GI50 in the test on COLO 205 is 20.1 µM (inactive).
Turning to `CC(C)(C)[Si](C)(C)OCCCC#CCO`, the GI50 was > 100 µM (inactive) with SK-MEL-5; > 100 µM (inactive) with A549; 92.7 µM (inactive) in the test with MOLT-4; > 100 µM (inactive) with SK-MEL-28; > 100 µM (inactive) in the test on SNB-19; > 100 µM (inactive) with Malme-3M. Further, the GI50 in the test on NCI-H522 was > 100 µM (inactive); in the test on SK-MEL-2, > 100 µM (inactive); in the test on KM12, > 100 µM (inactive); in the test with NCI-H460, > 100 µM (inactive); in the test on RPMI-8226, 64.9 µM (inactive); in the test on CCRF-CEM, 38.7 µM (inactive). Moreover, the GI50 in the test with CAKI-1, with OVCAR-8, with RXF 393, with U-251, in the test on M14 and with COLO 205 was > 100 µM (inactive) each time.
As for `O=C1OC(C2Cc3ccc4c(c3C2=O)CCC4)c2ccccc21` (configuration not stated), the GI50 with SK-MEL-5 is 43.1 µM (inactive); with A549, 50 µM (inactive); in the test on MOLT-4, 30.9 µM (inactive); with SK-MEL-28 it was 67.1 µM (inactive); in the test on OVCAR-3, 28.4 µM (inactive); in the test on SNB-19 it was 52.4 µM (inactive). Further, the GI50 was 94.4 µM (inactive) in the test with Malme-3M; > 100 µM (inactive) with NCI-H522; 64.9 µM (inactive) in the test on SK-MEL-2; 29.7 µM (inactive) with KM12; 50.9 µM (inactive) in the test on NCI-H460; 25.3 µM (inactive) with RPMI-8226. For the same compound, the GI50 with CCRF-CEM was 46.9 µM (inactive); with CAKI-1, > 100 µM (inactive); in the test with OVCAR-8, 56.9 µM (inactive); in the test with RXF 393, 37.7 µM (inactive); in the test with U-251, 38.8 µM (inactive); with M14, 51.1 µM (inactive). Also, the GI50 was > 100 µM (inactive) in the test with HOP-62 and 20.7 µM (inactive) in the test with COLO 205.
Consider `CN(C)C(=O)/N=C1\SC(=N\c2ccccc2)/C(=N/c2ccccc2)N1c1ccc([N+](=O)[O-])cc1`, for which the GI50 in the test with SK-MEL-5 was 49.8 µM (inactive); in the test with MOLT-4, > 100 µM (inactive); in the test on SK-MEL-28, > 100 µM (inactive); in the test with OVCAR-3 it was 71 µM (inactive); with SNB-19, > 100 µM (inactive); in the test on Malme-3M it was > 100 µM (inactive). Further, the GI50 in the test with NCI-H522, in the test with SK-MEL-2, in the test on KM12, in the test on NCI-H460, in the test on RPMI-8226 and with CCRF-CEM was > 100 µM (inactive) each time. For the same compound, the GI50 in the test on CAKI-1 is > 100 µM (inactive); with OVCAR-8, > 100 µM (inactive); in the test on RXF 393, > 100 µM (inactive); in the test on U-251, > 100 µM (inactive); in the test with M14, > 100 µM (inactive); with HOP-62 it was 61.9 µM (inactive). Moreover, the GI50 with COLO 205 is > 100 µM (inactive).
As for `CC(C)[C@](O)(C(=O)OCC1CC[N+]2([O-])CC[C@@H](O)C12)[C@H](C)O` (some centres not stated), the GI50 with SK-MEL-5 was > 334 µM (inactive); in the test with A549 it was > 375 µM (inactive); in the test on MOLT-4, > 375 µM (inactive); in the test on SK-MEL-28, > 375 µM (inactive); in the test on OVCAR-3 it was > 375 µM (inactive); in the test with SNB-19, > 375 µM (inactive). Besides, the GI50 in the test on Malme-3M was > 255 µM (inactive); with NCI-H522, > 375 µM (inactive); in the test on SK-MEL-2 it was 62.2 µM (inactive); in the test with KM12, > 375 µM (inactive); in the test on NCI-H460 it was > 122 µM (inactive); in the test with RPMI-8226, > 375 µM (inactive). Further, the GI50 in the test on CCRF-CEM, with CAKI-1, in the test with OVCAR-8, in the test with RXF 393, with U-251 and with HOP-62 was > 375 µM (inactive) throughout. For the same compound, in the test on COLO 205, the GI50 was > 375 µM (inactive).
On to `CCOC(=O)CN1CCS/C1=N/C#N`, for which the GI50 with SK-MEL-5, with A549, with MOLT-4, in the test on SK-MEL-28, with OVCAR-3 and in the test on SNB-19 was > 100 µM (inactive) in each case. Moreover, the GI50 in the test with Malme-3M is > 100 µM (inactive); with NCI-H522 it was > 100 µM (inactive); in the test on SK-MEL-2, > 100 µM (inactive); in the test with KM12, > 100 µM (inactive); in the test on NCI-H460, > 31.6 µM (inactive); in the test with RPMI-8226 it was > 100 µM (inactive). Moreover, the GI50 in the test on CCRF-CEM, in the test on CAKI-1, with OVCAR-8, in the test on RXF 393, in the test with U-251 and with HOP-62 was > 100 µM (inactive) in each case. The GI50 in the test on COLO 205 is > 100 µM (inactive).
In the case of `Nc1nc(=O)[nH]cc1F` [FLUCYTOSINE], the GI50 with SK-MEL-5, with A549, with MOLT-4, in the test with SK-MEL-28, with OVCAR-3 and in the test on SNB-19 was > 100 µM (inactive) throughout. In addition, the GI50 in the test with Malme-3M, in the test with NCI-H522, in the test with SK-MEL-2, in the test on KM12, in the test on NCI-H460 and in the test on RPMI-8226 was > 100 µM (inactive) in each case. The GI50 is > 100 µM (inactive) in the test with CAKI-1; > 100 µM (inactive) with OVCAR-8; > 100 µM (inactive) with RXF 393; 32.7 µM (inactive) in the test on U-251; > 100 µM (inactive) in the test with M14; > 100 µM (inactive) in the test on HOP-62. Besides, in the test on COLO 205, the GI50 was > 100 µM (inactive).
